This passage reports IC50 results from US9714243B2, “4-pyridinonetriazine derivatives as HIV integrase inhibitors” (Merck Sharp & Dohme Corp., priority 2012, dated 2017).

This experiment has as its system HIV-1 (NL4-3 strain). The experiment in a line: Assay for inhibition of HIV replication (ViKinG; infected MT4-GFP cells). Type of experiment: cell-based. As for the experimental part:
Assay for inhibition of HIV replication
MT4-GFP cells (250,000 cells/ml) were bulk-infected with HIV-1 (NL4-3 strain) at low multiplicity of infection (MOI) in RPMI+10% FBS for 24 hours. […] Test compounds were serial-diluted in DMSO on ECHO. The infected MT4-GFP cells were added to a 384-well poly-D-lysine coated black plate with clear bottom in which the diluted test compounds were placed. The cells were seeded at 8,000 cells per well and the final DMSO concentration was 0.4%. The infected cells (Green GFP cells) were quantified at both 24 and 48 hours post incubation using Acumen eX3. Viral reproductive ratio (R0) was determined using the number of infected cells at 48 hours divided by the number of infected cells at 24 hours. Percent viral growth inhibition was calculated by [1−(R−Rtripledrug)/(RDMSO−Rtripledrug)]*100. Compound potency IP or IC50 was determined by a 4-parameter dose response curve analysis.

Setting [1] is: MT4-GFP cells infected with HIV-1 NL4-3, 0% normal human serum (NHS), read-out: ViKinG IP (nM) with 0% NHS.
Setting [2] is: MT4-GFP cells infected with HIV-1 NL4-3, 10% normal human serum (NHS), read-out: ViKinG IP (nM) with 10% NHS.
Where [3] appears, read: MT4-GFP cells infected with HIV-1 NL4-3, 100% normal human serum (NHS), read-out: ViKinG IP (nM) with 100% NHS.
The mark [4] stands for this setting: Human immunodeficiency virus 1, NL43, MT4-GFP cells infected with HIV-1 NL4-3, 0% normal human serum (NHS), read-out: ViKinG IP (nM) with 0% NHS.
[5] abbreviates: Human immunodeficiency virus 1, NL43, MT4-GFP cells infected with HIV-1 NL4-3, 100% normal human serum (NHS), read-out: ViKinG IP (nM) with 100% NHS.
The mark [6] stands for this setting: Human immunodeficiency virus 1, NL43, MT4-GFP cells infected with HIV-1 NL4-3, 10% normal human serum (NHS), read-out: ViKinG IP (nM) with 10% NHS.

Each structure is given as a SMILES string. Where two headings read alike, the source gives them in different places.

Regarding `CN1C(=O)c2c(O)c(=O)c(-c3nnc(Cc4ccc(F)cc4F)s3)cn2N(C)C12CCC(C)(O)CC2` (stereo not drawn) [Compound 69], the IC50 by setting is: under setting [1], 22.6 nM; under setting [2], 84.7 nM.

For `CN(C)C(=O)C1(C)CCC2(CC1)N(C)C(=O)c1c(O)c(=O)c(-c3nnc(Cc4ccc(F)cc4)s3)cn1N2C` (stereo not drawn) [Compound 148], the IC50 under setting [2] came out at 8.6 nM and the IC50 under setting [3] is 119 nM.

Take `CCN1C(=O)c2c(O)c(=O)c(-c3nnc(Cc4ccc(F)cc4F)s3)cn2N(C)C12CCCCC(O)C2` (stereo not drawn) [Compound 45]: the IC50 came out at 4.07 nM under setting [4] and 122 nM under setting [5].

For `CCN1C(=O)c2c(O)c(=O)c(-c3nnc(Cc4ccc(F)cc4)s3)cn2N(CCOC)C1C` (stereo not drawn) [Compound 169], the IC50 is, setting by setting: under setting [6], 90 nM; under setting [5], 1510 nM.

`CCN1C(=O)c2c(O)c(=O)c(-c3nnc(Cc4ccc(F)cc4F)s3)cn2N(C)C12CCC(Oc1ccccc1)CC2` (stereo not drawn) [Compound 54]: the IC50 by setting is: under setting [1], 82.8 nM; under setting [3], 1470 nM.

Consider `CN1C(=O)c2c(O)c(=O)c(-c3nnc(Cc4ccc(F)cc4F)s3)cn2N(C)C12CCC(N)CC2` (stereo not drawn) [Compound 75], for which the IC50 by setting is: under setting [4], 5.02 nM; under setting [6], 35.3 nM.

Regarding `CCN1C(=O)c2c(O)c(=O)c(-c3nnc(Cc4ccc(F)cc4F)s3)cn2N(C)C1c1ccc(F)c(OC)c1` (racemic) [Compound 48], the IC50 under setting [4] turned out to be 19.6 nM and the IC50 under setting [5] was determined as 416 nM.

Consider `C[C@@H]1n2cc(C(=O)NCc3ccc(F)cc3F)c(=O)c(O)c2C(=O)N(C)C12CC2` [Compound 176], for which the IC50 is, setting by setting: under setting [4], 2.12 nM; under setting [5], 39 nM.

On to `CN1C(=O)c2c(O)c(=O)c(-c3nnc(Cc4ccc(F)cc4F)s3)cn2N(C)C12CCC(CO)CC2` (stereo not drawn) [Compound 74], for which the IC50 under setting [4] came out at 6.84 nM and the IC50 under setting [6] worked out at 23.6 nM.

Consider `CCN1C(=O)c2c(O)c(=O)c(-c3nnc(Cc4ccc(F)cc4)s3)cn2N(C)C12CC(O)C2` (stereo not drawn) [Compound 11], for which the IC50 was 231 nM under setting [6] and 4200 nM under setting [5].

Consider `CCN1C(=O)c2c(O)c(=O)c(-c3nnc(Cc4ccc(F)cc4F)s3)cn2N(C)C12CCC(OC(C)C)CC2` (stereo not drawn) [Compound 62], for which the IC50 under setting [1] was 8.11 nM and the IC50 under setting [3] stood at 159 nM.

Take `COCCN1C(=O)c2c(O)c(=O)c(-c3nnc(Cc4ccc(F)cc4F)s3)cn2N(C)C12CCC2` [Compound 173]: the IC50 reads like this: under setting [4], 7 nM; under setting [5], 526 nM.

As for `COCCNC(=O)C1CCC2(CC1)N(C)C(=O)c1c(O)c(=O)c(-c3nnc(Cc4ccc(F)cc4F)s3)cn1N2C` (stereo not drawn) [Compound 121], the IC50 is 102 nM under setting [1] and 240 nM under setting [2].

For `CCN1C(=O)c2c(O)c(=O)c(-c3nnc(Cc4ccc(F)cc4F)s3)cn2N(C)C12CCCCC(=O)C2` (racemic) [Compound 44], the IC50 by setting is: under setting [4], 4.36 nM; under setting [5], 240 nM.

As to `CCN1C(=O)c2c(O)c(=O)c(-c3nnc(Cc4ccc(F)cc4F)s3)cn2N(C)C12C[C@H]1CC(CC(=O)OC)C[C@H]1C2` (stereo partly drawn) [Compound 36], under setting [6], the IC50 is 52.6 nM.

`CN1C(=O)c2c(O)c(=O)c(-c3nnc(Cc4ccc(F)cc4F)s3)cn2N(C)C12CCC1C(=O)NC(=O)C1C2` (stereo not drawn) [Compound 81]: the IC50 reads like this: under setting [1], 37.5 nM; under setting [3], 1610 nM.

Regarding `CN1C(=O)c2c(O)c(=O)c(-c3nnc(Cc4ccc(F)cc4F)s3)cn2N(C)C12CCC(C(=O)N1CCC(F)(F)C1)CC2` (stereo not drawn) [Compound 117], the IC50 came to 20.4 nM under setting [4] and 42.7 nM under setting [2].

For `CN1C(=O)c2c(O)c(=O)c(-c3nnc(Cc4ccc(F)cc4F)s3)cn2N(C)C12CCC(C(=O)NCc1cn(C)cn1)CC2` (stereo not drawn) [Compound 131], the IC50 turned out to be 459 nM under setting [1] and 642 nM under setting [2].

Consider `CN1C2C(O)CCCN2C(=O)c2c(O)c(=O)c(-c3nnc(Cc4ccc(F)cc4F)s3)cn21` (stereo not drawn) [Compound 167], for which the IC50 by setting is: under setting [1], 2.52 nM; under setting [3], 41.9 nM.

Regarding `CCN1C(=O)c2c(O)c(=O)c(-c3nnc(Cc4ccc(F)cc4F)s3)cn2N(C)C1CC(C)O` (stereo not drawn) [Compound 41], the IC50 worked out at 3.15 nM under setting [4] and 73.2 nM under setting [6].

Turning to `CCN1C(=O)c2c(O)c(=O)c(C(=O)NCc3ccc(F)cc3F)cn2N(C)C12CC[C@@H]1C[C@@H]12` (stereo partly drawn) [Compound 188], the IC50 under setting [4] is 1.49 nM and the IC50 under setting [5] is 406 nM.

Turning to `CN1C(=O)c2c(O)c(=O)c(-c3nnc(Cc4ccc(F)cc4F)s3)cn2N(C)C12CC[C@@H]1C[C@@]12CO` (stereo partly drawn) [Compound 195], the IC50 amounted to 2.02 nM under setting [4] and 190 nM under setting [3].

With `CCCOC1CCC2(CC1)N(CC)C(=O)c1c(O)c(=O)c(-c3nnc(Cc4ccc(F)cc4F)s3)cn1N2C` (stereo not drawn) [Compound 60], the IC50 came out at 226 nM under setting [5] and 10.8 nM under setting [1].

In the case of `CCCOC1CCC2(CC1)N(CC)C(=O)c1c(O)c(=O)c(C(=O)NCc3ccc(F)cc3F)cn1N2C` (stereo not drawn) [Compound 194], the IC50 reads like this: under setting [1], 25 nM; under setting [3], 400 nM.

Take `CN1C(=O)c2c(O)c(=O)c(-c3nnc(Cc4ccc(F)cc4F)s3)cn2N(C)C12CCC(C(=O)NCc1cncs1)CC2` (stereo not drawn) [Compound 134]: the IC50 was 20.9 nM under setting [1] and 122 nM under setting [2].

Regarding `CN1C(=O)c2c(O)c(=O)c(-c3nnc(Cc4ccc(F)cc4F)s3)cn2N(C)C12CCC(C(=O)N1CCC(F)(F)C1)CC2` (stereo not drawn) [Compound 118], the IC50 by setting is: under setting [1], 14.4 nM; under setting [2], 8.43 nM.

As to `CCN1C(=O)c2c(O)c(=O)c(-c3nnc(Cc4ccc(F)cc4F)s3)cn2N(C)C12CC[C@H](C(=O)OC)[C@H](C)C2` (stereo partly drawn) [Compound 30], under setting [2], the IC50 amounted to 13.1 nM.

As to `COCCN1C(=O)c2c(O)c(=O)c(C(=O)NCc3ccc(F)c(F)c3F)cn2[C@@H](C)C12CC2` [Compound 185], the IC50 by setting is: under setting [4], 2.2 nM; under setting [5], 212 nM.

Turning to `CCN1C(=O)c2c(O)c(=O)c(-c3nnc(Cc4ccc(F)cc4)s3)cn2N(C)C12CCC(CC(=O)N(C)C)CC2` (stereo not drawn) [Compound 98], the IC50 under setting [2] came out at 32.2 nM and the IC50 under setting [3] was found to be 168 nM.

For the compound `CN1C2C(O)CCCN2C(=O)c2c(O)c(=O)c(-c3nnc(Cc4ccc(F)cc4F)s3)cn21` (stereo not drawn) [Compound 166], the IC50 under setting [1] came out at 9 nM and the IC50 under setting [3] was 162 nM.

In the case of `CN1C(=O)c2c(O)c(=O)c(-c3nnc(Cc4ccc(F)cc4F)s3)cn2N(C)C12CCCCCC2` [Compound 76], the IC50 under setting [4] is 17.3 nM, the IC50 under setting [6] is 23.6 nM and the IC50 under setting [5] turned out to be 761 nM.

Take `CN1C(=O)c2c(O)c(=O)c(-c3nnc(Cc4ccc(F)cc4F)s3)cn2N(C)C12CCC(C(=O)O)CC2` (stereo not drawn) [Compound 89]: the IC50 is, setting by setting: under setting [1], 44.9 nM; under setting [2], 322 nM.

As to `CN1C(=O)c2c(O)c(=O)c(C(=O)NCc3ccc(F)cc3F)cn2N(C)[C@@]12CC[C@@H]1C[C@@H]12` [Compound 187], the IC50 by setting is: under setting [4], 3.64 nM; under setting [5], 502 nM.

Turning to `CCOP(=O)(OCC)C1CCC2(C1)N(CC)C(=O)c1c(O)c(=O)c(-c3nnc(Cc4ccc(F)cc4F)s3)cn1N2C` (stereo not drawn) [Compound 37], the IC50 amounted to 186 nM under setting [5] and 18.2 nM under setting [2].

For `CCN1C(=O)c2c(O)c(=O)c(-c3nnc(Cc4ccc(F)cc4F)s3)cn2N(C)C12CCC(C(F)(F)F)CC2` (stereo not drawn) [Compound 50], the IC50 was 25.6 nM under setting [1] and 5380 nM under setting [3].

Take `CCN1C(=O)c2c(O)c(=O)c(-c3nnc(Cc4ccc(F)cc4F)s3)cn2N(C)C12CCC(c1nc(C)no1)CC2` (stereo not drawn) [Compound 46]: the IC50 came to 6.78 nM under setting [4] and 139 nM under setting [5].

Consider `CCN1C(=O)c2c(O)c(=O)c(-c3nnc(Cc4ccc(F)cc4)s3)cn2N(C)C12CCC(CC(=O)N(C)C)C2` (stereo not drawn) [Compound 99], for which the IC50 runs as follows: under setting [6], 34.9 nM; under setting [5], 122 nM.

For the compound `CN1C(=O)c2c(O)c(=O)c(-c3nnc(Cc4ccc(F)cc4F)s3)cn2N(C)C12CCC(C)(C(=O)O)CC2` (stereo not drawn) [Compound 83], the IC50 is, setting by setting: under setting [1], 151 nM; under setting [2], 755 nM.

Consider `CN1C2CCCCN2C(=O)c2c(O)c(=O)c(-c3nnc(Cc4ccc(F)cc4)s3)cn21` (stereo not drawn) [Compound 154], for which the IC50 came to 33.9 nM under setting [2] and 1590 nM under setting [3].

On to `CN1C(=O)c2c(O)c(=O)c(-c3nnc(Cc4ccc(F)cc4F)s3)cn2N(C)C12CCC(C(=O)NC1CC1)C2` (stereo not drawn) [Compound 141], for which the IC50 is, setting by setting: under setting [4], 59.7 nM; under setting [5], 1990 nM.

Turning to `CN1C2CCCCN2C(=O)c2c(O)c(=O)c(-c3nnc(Cc4ccc(F)cc4F)s3)cn21` (stereo not drawn) [Compound 157], the IC50 is, setting by setting: under setting [6], 14.2 nM; under setting [5], 613 nM.

Consider `CCN1C(=O)c2c(O)c(=O)c(-c3nnc(Cc4ccc(F)cc4F)s3)cn2N(C)C12CCC(c1nc(C)no1)CC2` (stereo not drawn) [Compound 47], for which the IC50 under setting [1] was determined as 11.6 nM and the IC50 under setting [3] worked out at 186 nM.

For the compound `CCOC1CCC2(CC1)N(CC)C(=O)c1c(O)c(=O)c(C(=O)NCc3ccc(F)cc3F)cn1N2C` (stereo not drawn) [Compound 191], the IC50 under setting [4] worked out at 6.74 nM and the IC50 under setting [3] was 239 nM.

As to `CN1C(=O)c2c(O)c(=O)c(-c3nnc(Cc4ccc(F)cc4F)s3)cn2N(C)C12CCC(C(=O)NCC1CCOC1)CC2` (stereo not drawn) [Compound 130], the IC50 is, setting by setting: under setting [1], 13.7 nM; under setting [2], 33.9 nM.
